# In patent publication US9879303B2, “Chromogenic glucuronidase substrates and uses” (Glycosynth Limited, priority 2013, dated 2018):
# Counter-ions that a name gives are not always drawn.
# System: E. coli clinical isolates
# Test: screen of strains in broth medium containing FAC
# Format: cell-based
# Parameters: key to colour: Red, Green, Black or Purple mean strong colour; Red, Green, Black or Purple mean strong colour; Red, Green, Black or Purple mean strong colour; Red, Green, Black or Purple mean strong colour; +/− means less colour than strong; Tr means a trace of colour, less than +/−; — means no colour
# Conditions: for colour: 37° C. 18 hours
# Description: In order to obtain a fuller picture of the sensitivity of the substrates, they were screened with 100 different clinical isolates of E. coli in a liquid medium containing FAC. The isolates were chosen at random from the Microbiology Department, Freeman Hospital, Newcastle Upon Tyne, UK. The effectiveness of the new substrates was compared with three other media which all contained indoxyl-β-D-glucuronides. One was a commercial medium, CPS ID 3 (bioMérieux SA, Lyon, France). […] This medium was employed as a control. Among the β-D-glucuronidase producing strains of E. coli there is a large variation in the quantity of the enzyme produced and it is almost certain that the CPS ID 3 medium has been rigorously optimised to allow good growth of all the target organisms and maximum expression of the target enzymes. Therefore, two indoxyl glucuronides, X-β-D-glucuronide CHA salt and Rose-β-D-glucuronide CHA salt were also tested in a simple agar medium to allow a direct comparison of the sensitivity of these Indoxyl glucuronides when used in a medium that has not been optimised for the growth of the target organism. The comparison of the results for Rose-β-D-glucuronide and the CPS ID 3 medium was of particular significance as the commercial medium also uses Rose-β-D-glucuronide for the detection of E. coli. For consistency, the four glucuronides were all chosen as their CHA salts. As already stated, it is not anticipated that the salt form is critical to their performance. Currently. X-β-D-glucuronide is often used as either the CHA salt or the sodium salt. Brenner and colleagues [K. P. Brenner et al, Appl. Environ. Microbiol., 59, 3534-3544, (1993)] found no difference in the performance of the CHA and sodium salt forms with their application using indoxyl-β-D-glucuronide, neither in respect of colour development nor in the recovery of E. coli.
# The two indoxyl glucuronides used produce insoluble endpoints following hydrolysis, as does the CPS ID 3 medium. It was therefore necessary to test these two substrates on agar plates. In contrast, catechol-β-D-glucuronide (1) and DHN-β-D-glucuronide (2b) give much more soluble endpoints best suited to liquid media and were therefore tested in a broth medium. Each broth was prepared using proteose peptone (Oxoid, Basingstoke, UK) (2 g), NaCl (1 g) and FAC (100 mg) in DI water (180 mL). This mixture was autoclaved and cooled to room temperature before being dispensed into bijoux (100×1.8 mL). Catechol β-D-glucuronide CHA salt (1) or DHN-β-D-glucuronide CHA salt (2b) (60 mg) were each dissolved in water (20 mL) and filtered to sterilize before being aseptically dispensed into successive bijoux (0.2 mL) containing the broth solution. The broth/substrate solutions were then inoculated with bacterial suspensions made up to 0.5 McFarland standard (2 μL per bijoux). X-β-D-glucuronide CHA salt (Glycosynth Ltd, Warrington, UK) (10 mg) was dissolved in NMP (200 μL). Rose-β-D-glucuronide CHA salt (Glycosynth Ltd, Warrington, UK) (20 mg) was dissolved in NMP (200 μL). These solutions were then added to Columbia agar (Oxoid, Basingstoke, UK) (100 mL) and inoculated with bacterial suspensions made up to 0.5 McFarland standard (1 μL). The plates and broths were incubated at 37° C. for 18 hours in air.
# [1] = 100 E. coli strains after 18 h incubation, broth
smiles,measurement,setting,value
"O=C(O)C1OC(Oc2cc3ccccc3cc2O)C(O)C(O)C1O [Compound 2b, DHN-β-D-Glucuronide CHA Salt]",% Sensitivity,[1],82%
same,Negative strains,[1],18
same,Positive strains,[1],82
same,colour,"E. coli 260262P, broth",Purple
same,colour,"E. coli 260280Z, broth",Purple
same,colour,"E. coli 260310H, broth",Purple
same,colour,"E. coli 260313A, broth",—
same,colour,"E. coli 260316T, broth",—
same,colour,"E. coli 260327V, broth",Purple
same,colour,"E. coli 260330Y, broth",Purple
same,colour,"E. coli 260333P, broth",—
same,colour,"E. coli 260345F, broth",Purple
same,colour,"E. coli 260348K, broth",Purple
same,colour,"E. coli 260354W, broth",Purple
same,colour,"E. coli 260364H, broth",—
same,colour,"E. coli 260370C, broth",Purple
same,colour,"E. coli 260375E, broth",Purple
same,colour,"E. coli 260390B, broth",—
same,colour,"E. coli 260396Z, broth",Purple
same,colour,"E. coli 260398Q, broth",Purple
same,colour,"E. coli 260400N, broth",—
same,colour,"E. coli 260401Q, broth",Purple
same,colour,"E. coli 260402H, broth",Purple
same,colour,"E. coli 260404W, broth",Purple
same,colour,"E. coli 260405P, broth",Purple
same,colour,"E. coli 260406A, broth",—
same,colour,"E. coli 260406Y, broth",Purple
same,colour,"E. coli 260407F, broth",Purple
same,colour,"E. coli 260408C, broth",Purple
same,colour,"E. coli 260411Z, broth",Purple
same,colour,"E. coli 260412Q, broth",Purple
same,colour,"E. coli 260414H, broth",Purple
same,colour,"E. coli 260415Y, broth",Purple
same,colour,"E. coli 260416W, broth",Purple
same,colour,"E. coli 260417P, broth",Purple
same,colour,"E. coli 260422Y, broth",Purple
same,colour,"E. coli 260424P, broth",Purple
same,colour,"E. coli 260425A, broth",Purple
same,colour,"E. coli 260426F, broth",Purple
same,colour,"E. coli 260428T, broth",Purple
same,colour,"E. coli 260431N, broth",Purple
same,colour,"E. coli 260432E, broth",Purple
same,colour,"E. coli 260433H, broth",Purple
same,colour,"E. coli 260434Y, broth",Purple
same,colour,"E. coli 260435W, broth",Purple
same,colour,"E. coli 260436P, broth",Purple
same,colour,"E. coli 260437A, broth",—
same,colour,"E. coli 260438F, broth",Purple
same,colour,"E. coli 260439C, broth",Purple
same,colour,"E. coli 260440S, broth",Purple
same,colour,"E. coli 260441G, broth",Purple
same,colour,"E. coli 260458Y, broth",Purple
same,colour,"E. coli 260459W, broth",Purple
same,colour,"E. coli 260463D, broth",Purple
same,colour,"E. coli 260464G, broth",Purple
same,colour,"E. coli 260471B, broth",—
same,colour,"E. coli 260478N, broth",—
same,colour,"E. coli 260479Q, broth",Purple
same,colour,"E. coli 260480M, broth",Purple
same,colour,"E. coli 260481J, broth",Purple
same,colour,"E. coli 260483R, broth",—
same,colour,"E. coli 260485D, broth",Purple
same,colour,"E. coli 260486L, broth",Purple
same,colour,"E. coli 260492J, broth",Purple
same,colour,"E. coli 260494B, broth",Purple
same,colour,"E. coli 260495R, broth",Purple
same,colour,"E. coli 260497D, broth",Purple
same,colour,"E. coli 260502G, broth",Purple
same,colour,"E. coli 260503Z, broth",Purple
same,colour,"E. coli 260504N, broth",Purple
same,colour,"E. coli 260505Q, broth",—
same,colour,"E. coli 260506E, broth",Purple
same,colour,"E. coli 260508Y, broth",Purple
same,colour,"E. coli 260509W, broth",Purple
same,colour,"E. coli 260510R, broth",Purple
same,colour,"E. coli 260511X, broth",Purple
same,colour,"E. coli 260514G, broth",—
same,colour,"E. coli 260515Z, broth",Purple
same,colour,"E. coli 260521S, broth",Purple
same,colour,"E. coli 260522Z, broth",Purple
same,colour,"E. coli 260532S, broth",Purple
same,colour,"E. coli 260533G, broth",Purple
same,colour,"E. coli 260536Q, broth",Purple
same,colour,"E. coli 260537E, broth",—
same,colour,"E. coli 260538H, broth",—
same,colour,"E. coli 260539Y, broth",Purple
same,colour,"E. coli 260541R, broth",Purple
same,colour,"E. coli 260545G, broth",Purple
same,colour,"E. coli 260547N, broth",Purple
same,colour,"E. coli 260548Q, broth",Purple
same,colour,"E. coli 260549E, broth",Purple
same,colour,"E. coli 260553X, broth",—
same,colour,"E. coli 260554D, broth",Purple
same,colour,"E. coli 260555L, broth",Purple
same,colour,"E. coli 260563B, broth",Purple
same,colour,"E. coli 260564R, broth",Purple
same,colour,"E. coli 260578D, broth",—
same,colour,"E. coli 2603121P, broth",—
same,colour,"E. coli 2604399E, broth",Purple
same,colour,"E. coli O157 non-toxigenic, broth",—
same,colour of positive solutions,"broth with FAC, in words",purple solutions
